Assay results taken from patent US4607023A, “Natriuretic” (L'Institut de Recherches Cliniques de Montreal, priority 1983, dated 1986).
Entries after “also recorded” stand apart in the source; their conditions may differ. Bridge positions count the residues as written; N and C are the ends.

Columns and labels:
[1] = test system: female Sprague-Dawley rats; assay: Natriuretic and diuretic bioassay: urinary Na+ excretion after i.v. bolus in anesthetized rats; format: in vivo, rat; conditions: for natriuretic activity, comparison in words (FIG. 12): 15 to 1350 pmoles i.v. bolus, change of Na+ excretion per 20 min, at least four rats per dose
Protocol: Diuretic and natriuretic activities of the ANFs are determined by the method of Garcia et al., (1982) Experientia 38, 1071-1073 and of Thibault et al., (1983) Hypertension 5, (Suppl. I), 75-80, both cited above, in female Sprague-Dawley rats (180-200 g) anesthetized with pentobarbital (60 mg/kg i.p.) equipped with a bladder catheter and an intrajugular vein catheter. The animals receive an infusion of 5% dextrose (3 ml/hr) for 45 minutes before the assay and during the evaluation period. Urine is collected in pre-weighed vials for 20 minute intervals. Following a basal collection period the ANFs to be assayed are injected as a bolus of 1 ml in Krebs solution pH 7.4 via the intrajugular vein catheter, urine is collected for a 20 minute period, and sodium concentrations are determined by flame photometry. Results are expressed as μEq of Na^+ for the collection period of 20 minutes from which the sodium excretion of the control period has been subtracted (ΔμEq Na^+ /20 min), and specific activity is defined as ΔμEq Na^+ /20 min/mg of protein. Protein is measured by the Bradford assay, see Spector, T. (1978) Anal. Biochem. 86, 142-146, with bovine albumin as a standard except for substantially pure ANFs where the amount of peptide is estimated from the amino acid sequencer.
Generally, in the purification procedures described above, unless otherwise specified all procedures are carried out at 4° C. At the end of each chromatographic step the material is lyophilized and then stored at -20° C. until used. For small volume (<6 ml) lyophilization is carried out in polystyrene tubes (1.5×7 cm) in a Savant Speed Vac concentrator. Larger volumes in the first steps are lyophilized in glass flasks. For subsequent steps, samples are dissolved in 1 to 3 ml of 0.01M ammonium acetate, pH 5.0, and aliquots are taken for the biological assay (Garcia et al., (1982) Experientia 38, 1071-1073, cited above) which are done in duplicate.
Generally, in the purification procedures discussed above, unless otherwise specified all procedures were carried out at 4° C. At the end of each chromatographic step the material was lyophilized and then stored at -20° C. until used. For small volume (<6 ml) lyophilization was carried out in polystyrene tubes (1.5×7 cm) in a Savant Speed Vac concentrator. Larger volumes in the first steps were lyophilized in glass flasks. For subsequent steps, samples were dissolved in 1 to 3 ml of 0.01M ammonium acetate, pH 5.0. Aliquots were taken for the biological assay (Garcia et al. (1982) Experientia 38, 1071-1073) which were done in duplicate. Proteins were measured by the Bradford assay (Spector, T. (1978) Anal. Biochem. 86, 142-146) with bovine albumin as a standard except in the last step where the amount of peptides was estimated from the amino acid sequencer.
The natriuretic activities of native ANF(2-33), ANF(3-33) and synthetic ANF(8-33) acid or amide forms were determined by a biological assay (Garcia, R., Cantin, M., Thibault, G., Ong, H. and Genest, J. (1982) Experientia 38: 1071-1073; Thibault, G., Garcia, R., Cantin, M., and Genest, J. (1983) Hypertension 5 (Suppl. I): 75-83), both references cited above. Female Sprague-Dawley rats (180-200 g) were used as bioassay animals. They were anesthetized with pentobarbital (60 mg/kg i.p.) and a bladder catheter and an intrajugular vein catheter were installed. The animals received a 5% (W/V) dextrose infusion (2.1 ml/hr) 30 minutes before the assay and during the evaluation period. Urine was collected in preweighed vials for 20-minute intervals. After a basal collection period, the ANF peptides (native ANF(2-33) or (3-33) or synthetic (8-33) acid or amide forms; 15 to 1350 pmoles) were injected in a bolus injection in 1 ml of Krebs solution, pH 7.4. Each dose was injected in at least four rats. The sodium concentration was measured by a flame photometer. The results are expressed in terms of change of Na^+ excretion per 20 min±SEM.

[2] = test system: rabbit renal arteries (helical vascular strips); assay: Vasorelaxant activity in vitro on norepinephrine-contracted rabbit renal artery strips; format: cell-based; conditions: 0.25 μg peptide added to the bath 5 min before the cumulative NE curve; p<0.01
Protocol: The vasorelaxant activities of the ANFs of this invention are determined in vitro by means of a procedure involving the use of mammalian vascular strips. Briefly, healthy rabbits are anesthetized with sodium pentobarbital (30 mg/kg i.v.), their renal arteries are rapidly excised, fat and connective tissure are trimmed off, and the arterial issue is helically cut. The helical strips thus obtained are mounted between a fixed base and a force displacement transducer, immersed in a bath of continuously oxygenated Krebs solution at 37° C. and pH 7.4, and a tension of 500-700 mg is applied to the strip of arterial tissue. L-Norepinephrine bitartrate (NE) is added to the bath to obtain concentrations of NE ranging from 3.9×10^-6 to […], the contractions elicited by NE are registered on a polygraph, and a cumulative dose-response curve is established. Once a standard curve is reproducible it is repeated five minutes after having added 0.25 μg of the respective ANF to the bath. […]
For each arterial strip a cumulative dose-response curve to NE (L-norepinephrine bitartrate, Sigma Chemicals) ranging from 3.9×10^-6 to 1.6×10^-2 mM was obtained. […] The contraction elicited for each dose of NE is expressed as a percent of the maximum response.
Results are expressed as mean ±SEM. […]

[3] = native peptide peaks after last step, CN μBondapak column, high molecular weight region, rat bioassay

Row | Substance | specific activity (natriuretic) [1, 3] | diuretic and natriuretic activity, general statements in words ([1]; rat bioassay) | natriuretic activity, comparison in words (FIG. 12) [1] | specific activity of the material recovered (natriuretic) ([1]; after CN μBondapak reverse phase HPLC, partial inactivation of the peptide) | specific activity (natriuretic) ([1]; material at the Mono S column step, fractions 40 to 44 minutes, low molecular weight region) | vasorelaxant activity: displacement of the norepinephrine dose-response curve (FIG. 13) [2]
1 | H-Leu-Ala-Gly-Pro-Arg-Ser-Leu-Arg-Arg-Ser-Ser-Cys-Phe-Gly-Gly-Arg-Ile-Asp-Arg-Ile-Gly-Ala-Gln-Ser-Gly-Leu-Gly-Cys-Asn-Ser-Phe-Arg-Tyr-OH (H-LAGPRSLRRSSCFGGRIDRIGAQSGLGCNSFRY-OH; disulfide 12-28; ends not checked) [ANF(1-33), native rat atrial natriuretic factor of 33 amino acid residues, disulfide bridge Cys12-Cys28] | 297,000 μEq of Na^+ excreted/20 min/mg | biologically active |  |  |  | 
2 | H-Arg-Arg-Ser-Ser-Cys-Phe-Gly-Gly-Arg-Ile-Asp-Arg-Ile-Gly-Ala-Gln-Ser-Gly-Leu-Gly-Cys-Asn-Ser-Phe-Arg-Tyr-OH (H-RRSSCFGGRIDRIGAQSGLGCNSFRY-OH; disulfide 5-21; ends not checked) [ANF(8-33), native rat atrial natriuretic factor of 26 amino acid residues] | 450,000 μEq of Na^+ excreted/20 min/mg | more active than ANF(3-33) or ANF(1-33) |  |  |  | 
3 | H-Ala-Gly-Pro-Arg-Ser-Leu-Arg-Arg-Ser-Ser-Cys-Phe-Gly-Gly-Arg-Ile-Asp-Arg-Ile-Gly-Ala-Gln-Ser-Gly-Leu-Gly-Cys-Asn-Ser-Phe-Arg-Tyr-OH (H-AGPRSLRRSSCFGGRIDRIGAQSGLGCNSFRY-OH; disulfide 11-27; ends not checked) [ANF(2-33), native rat atrial natriuretic factor of 32 amino acid residues] |  |  | slightly higher than that of the above compounds; also recorded: slightly higher than that of the other forms |  |  | 
4 | H-Gly-Pro-Arg-Ser-Leu-Arg-Arg-Ser-Ser-Cys-Phe-Gly-Gly-Arg-Ile-Asp-Arg-Ile-Gly-Ala-Gln-Ser-Gly-Leu-Gly-Cys-Asn-Ser-Phe-Arg-Tyr-OH (H-GPRSLRRSSCFGGRIDRIGAQSGLGCNSFRY-OH; disulfide 10-26; ends not checked) [ANF(3-33), native rat atrial natriuretic factor of 31 amino acid residues] |  | biologically active | comparable natriuretic activities | 84,000 μEq Na^+ excreted/20 min/mg | 131,000 μEq of Na^+ excreted/20 min/mg | displacing the response to norepinephrine (NE) to the right
